# Data taken from patent US20180105876A1, “MEDICATION DOSING REPORT” (BAYCREST TECHNOLOGY PTY LTD, priority 2015, published 2018).
# Tested on: patients suffering major depressive disorder
# Assay: open-label desvenlafaxine treatment of MDD outpatients, HDRS assessed every two weeks
# Type: in vivo, human
# Method: A […] clinical trial was performed to examine the clinical validity of a five gene, combinatorial, pharmacogenetic-based antidepressant dosing support tool for desvenlafaxine dosing. Participants were self-identified Caucasian outpatients aged 18 years and older with a principal DSM-5 diagnosis of MDD (semi-structured psychiatrist assessment) and a 17-item Hamilton Depression Rating Scale (HDRS) score greater than or equal to 18. Participants with other active psychiatric diagnoses were excluded, specifically those suffering with adjustment disorder with depressed mood, persistent depressive disorder, and subjects with a principal clinical diagnosis of a personality disorder. Additional exclusion criteria included pregnancy or breastfeeding, hepatic or renal impairments, co-prescription of known UGT1A1 or ABCB1 inducers/inhibitors (e.g. St John's Wort, valproic acid), regular grapefruit juice consumption, and current smoking which may influence appropriate dosing. A total of 131 individuals were screened for eligibility criteria. […] All participants received desvenlafaxine in an open-label manner during the 10-week study period. At baseline, age, sex, duration of the current depressive episode, and number of depressive episodes was recorded. […] Symptom severity was assessed at baseline and every two-weeks thereafter during the study period with the HDRS. […]
compound,measurement,setting,value
CN(C)CC(c1ccc(O)cc1)C1(O)CCCCC1 (centres unmarked) [desvenlafaxine],participants achieved symptom remission (HDRS score of 7 or less by week 10),"after 10 weeks of desvenlafaxine treatment, 119 MDD participants, dose adjusted every two weeks",80%
same,greater than 50% reduction in HDRS from baseline,among the 24 participants who did not achieve symptom remission by week 10,42%
